Laboratory results as given in patent EP2599815B1, “POLYCARBOXYLIC ACID CONDENSATE, THERMOSETTING RESIN COMPOSITION, SUBSTRATE FOR MOUNTING SEMICONDUCTOR ELEMENT AND PROCESS FOR PRODUCING SAME, AND SEMICONDUCTOR DEVICE” (Hitachi Chemical Co., Ltd., priority 2010, dated 2012).
In brackets after ≈: the same amount, converted by molar mass. Like-named read-outs stand apart in the source and are kept apart here.

What was measured:
[1] = Solubility in water at 30°C of carboxyl group-containing compounds; conditions: for solubility: distilled water, 30 °C, water, thermodynamic from solid

Row | solubility [1] | Compound | also measured
1 | – | tetrahydrophthalic acid | solubility in water (30°C): 5 mg/mL
2 | 9 mg/mL (≈ 54.2 mM) | O=C(O)c1ccccc1C(=O)O [phthalic acid] | –
3 | 20 mg/mL (≈ 95.2 mM) | O=C(O)c1ccc(C(=O)O)c(C(=O)O)c1 [trimellitic acid] | –
4 | 800 mg/mL (≈ 6890 mM) | O=C(O)/C=C\C(=O)O [maleic acid] | –
5 | – | O=C(O)C1CCC(C(=O)O)C(C(=O)O)C1 (stereo not drawn) [hydrogenated trimellitic acid] | solubility in water (30°C) ([1]; weight of solute per 1 L of distilled water in a saturated aqueous solution at 30°C): 300 mg/mL (≈ 1390 mM)
6 | 1.5 mg/mL (≈ 8.71 mM) | O=C(O)C1CCCCC1C(=O)O (stereo not drawn) [hexahydrophthalic acid] | –
